Target: T1, Caspase-3 (Homo sapiens, UniProt P42574)
T1 sequence (P42574 whole entry): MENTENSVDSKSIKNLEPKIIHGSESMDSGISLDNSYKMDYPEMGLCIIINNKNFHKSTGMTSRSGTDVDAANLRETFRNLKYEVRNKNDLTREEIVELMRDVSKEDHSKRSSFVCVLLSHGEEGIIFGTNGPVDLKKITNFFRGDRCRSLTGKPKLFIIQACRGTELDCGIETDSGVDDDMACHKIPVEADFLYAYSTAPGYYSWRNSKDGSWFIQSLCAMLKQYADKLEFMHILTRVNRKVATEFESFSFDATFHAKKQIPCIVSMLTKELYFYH
Assay: Inhibition of human recombinant caspase-3 catalytic domain using Ac-DEVD-pNA as substrate preincubated for 30 mins before substrate addition measured after 3 mins

Compound | IC50 [µM]
CCCN1C(=O)C(Nc2ccc(Br)cc2)=C(C(=O)OCC)C1c1ccccc1 (centres undefined) | > 45
CCOC(=O)C1=C(Nc2ccc(F)cc2)C(=O)N(c2ccc(F)cc2)C1 | > 45
CCOC(=O)C1=C(NC2CCCCC2)C(=O)N(C2CCCCC2)C1 | > 45
CCCNC1=C(C(=O)OC)CN(c2ccccc2)C1=O | > 45
CCOC(=O)C1=C(Nc2ccccc2)C(=O)N(c2ccccc2)C1 | > 45

Tested on: not listed separately
Assay: Octanol-water partition coefficient, log P of the compound by Shake-flask method
Format: physicochemical

Compound | logP
CCOC(=O)C1=C(Nc2ccc(Br)cc2)C(=O)N(c2ccc(Br)cc2)C1 | 1.75
CCOC(=O)C1=C(Nc2cccc3ccccc23)C(=O)N(C2CCCCC2)C1c1ccccc1 (centres undefined) | 2
CCOC(=O)C1=C(Nc2ccc(Br)cc2)C(=O)N(C2CCCCC2)C1c1ccccc1 (centres undefined) | 2.25
CCOC(=O)C1=C(NC2CCCCC2)C(=O)N(c2ccc(Br)cc2)C1 | 1.8
